Results taken from the NIST ThermoML archive (doi:10.1016/j.fluid.2007.04.030).
Numbers after ± are expanded uncertainties.

Experiment: xn = mol fraction of the nth substance listed
Conditions: 101 kPa, Liquid

COc1cc2c(cc1O)CC1c3c(cc(O)c(OC)c3-2)CCN1C (configuration not stated) [boldine] + CO
mass density [kg/m3]
Conditions	x1 = 0.00099	x1 = 0.002	x1 = 0.00302	x1 = 0.00406	x1 = 0.00513	x1 = 0.00788	x1 = 0.01077	x1 = 0.01696	x1 = 0.02389
283.15 K	804.63 ± 0.56	808.15 ± 0.55	811.7 ± 0.54	815.24 ± 0.54	818.83 ± 0.53	827.92 ± 0.51	837.15 ± 0.49	856.15 ± 0.46	875.72 ± 0.42
288.15 K	799.96 ± 0.57	803.48 ± 0.56	807.04 ± 0.55	810.59 ± 0.55	814.19 ± 0.54	823.28 ± 0.52	832.53 ± 0.5	851.55 ± 0.47	871.15 ± 0.43
293.15 K	795.27 ± 0.58	798.79 ± 0.57	802.35 ± 0.56	805.91 ± 0.55	809.51 ± 0.55	818.62 ± 0.53	827.88 ± 0.51	846.93 ± 0.47	866.56 ± 0.44
298.15 K	790.57 ± 0.59	794.1 ± 0.58	797.66 ± 0.57	801.22 ± 0.56	804.83 ± 0.56	813.95 ± 0.54	823.21 ± 0.52	842.29 ± 0.48	861.96 ± 0.45
303.15 K	785.86 ± 0.59	789.39 ± 0.59	792.96 ± 0.58	796.52 ± 0.57	800.14 ± 0.57	809.27 ± 0.55	818.54 ± 0.53	837.63 ± 0.49	857.34 ± 0.46
308.15 K	781.12 ± 0.6	784.66 ± 0.6	788.23 ± 0.59	791.8 ± 0.58	795.42 ± 0.58	804.56 ± 0.56	813.85 ± 0.54	832.96 ± 0.5	852.69 ± 0.47
313.15 K	776.35 ± 0.61	779.89 ± 0.61	783.47 ± 0.6	787.05 ± 0.59	790.67 ± 0.59	799.82 ± 0.57	809.13 ± 0.55	828.27 ± 0.51	848.03 ± 0.48
318.15 K	771.55 ± 0.62	775.1 ± 0.62	778.68 ± 0.61	782.26 ± 0.6	785.89 ± 0.6	795.05 ± 0.58	804.37 ± 0.56	823.55 ± 0.52	843.34 ± 0.48
323.15 K	766.71 ± 0.63	770.26 ± 0.63	773.84 ± 0.62	777.43 ± 0.61	781.07 ± 0.61	790.25 ± 0.59	799.58 ± 0.57	818.78 ± 0.53	838.61 ± 0.49
328.15 K	761.83 ± 0.64	765.38 ± 0.64	768.97 ± 0.63	772.57 ± 0.62	776.2 ± 0.62	785.4 ± 0.6	794.75 ± 0.58	813.97 ± 0.54	833.84 ± 0.5
333.15 K	756.89 ± 0.65	760.45 ± 0.65	764.05 ± 0.64	767.65 ± 0.63	771.29 ± 0.63	780.5 ± 0.61	789.86 ± 0.59	809.11 ± 0.55	829.02 ± 0.51

COc1cc2c(cc1O)CC1c3c(cc(O)c(OC)c3-2)CCN1C (configuration not stated) [boldine] + CCO
mass density [kg/m3]
Conditions	x1 = 0.00151	x1 = 0.0036	x1 = 0.00737	x1 = 0.01217	x1 = 0.0177	x1 = 0.02066	x1 = 0.02425	x1 = 0.02539
283.15 K	801.79 ± 0.56	806.58 ± 0.55	815.68 ± 0.53	826.69 ± 0.51	838.83 ± 0.49	845.25 ± 0.48	852.81 ± 0.46	855.28 ± 0.46
288.15 K	797.54 ± 0.57	802.33 ± 0.56	811.43 ± 0.54	822.44 ± 0.52	834.59 ± 0.5	841.01 ± 0.48	848.57 ± 0.47	851.04 ± 0.47
293.15 K	793.27 ± 0.58	798.06 ± 0.57	807.16 ± 0.55	818.18 ± 0.53	830.32 ± 0.51	836.74 ± 0.49	844.3 ± 0.48	846.79 ± 0.47
298.15 K	788.97 ± 0.59	793.77 ± 0.58	802.87 ± 0.56	813.89 ± 0.54	826.03 ± 0.51	832.46 ± 0.5	840.02 ± 0.49	842.51 ± 0.48
303.15 K	784.65 ± 0.6	789.45 ± 0.59	798.55 ± 0.57	809.57 ± 0.55	821.71 ± 0.52	828.14 ± 0.51	835.71 ± 0.5	838.2 ± 0.49
308.15 K	780.3 ± 0.61	785.1 ± 0.6	794.2 ± 0.58	805.23 ± 0.56	817.37 ± 0.53	823.79 ± 0.52	831.35 ± 0.51	833.86 ± 0.5
313.15 K	775.91 ± 0.61	780.71 ± 0.6	789.81 ± 0.59	800.84 ± 0.56	813 ± 0.54	819.42 ± 0.53	826.97 ± 0.51	829.49 ± 0.51
318.15 K	771.49 ± 0.62	776.27 ± 0.61	785.38 ± 0.6	796.41 ± 0.57	808.57 ± 0.55	815 ± 0.54	822.56 ± 0.52	825.07 ± 0.52
323.15 K	767.01 ± 0.63	771.79 ± 0.62	780.9 ± 0.6	791.93 ± 0.58	804.1 ± 0.56	810.54 ± 0.55	818.09 ± 0.53	820.6 ± 0.53
328.15 K	762.47 ± 0.64	767.24 ± 0.63	776.37 ± 0.61	787.4 ± 0.59	799.57 ± 0.57	806.01 ± 0.56	813.57 ± 0.54	816.08 ± 0.54
333.15 K	757.86 ± 0.65	762.64 ± 0.64	771.76 ± 0.62	782.8 ± 0.6	794.98 ± 0.58	801.42 ± 0.57	808.99 ± 0.55	811.5 ± 0.55
